From ChEMBL document CHEMBL5360655, “Design, Synthesis, and Biological Evaluation of Novel P2X7 Receptor Antagonists for the Treatment of Septic Acute Kidney Injury” (J Med Chem, 2023)
The source made the active and inactive calls. The rule behind the calls is not given here.

Columns and labels:
Cytochrome P450 2E1 = Cytochrome P450 2E1 (Homo sapiens, UniProt P05181); assay: Inhibition of CYP2E1 in human liver microsomes using cholorzoxazone-as substrate upto 100 uM incubated for 10 mins in presence of NADPH by LC-MS/MS analysis; assay type: ADME, Microsome
Chain of Cytochrome P450 2E1 (P05181 whole entry): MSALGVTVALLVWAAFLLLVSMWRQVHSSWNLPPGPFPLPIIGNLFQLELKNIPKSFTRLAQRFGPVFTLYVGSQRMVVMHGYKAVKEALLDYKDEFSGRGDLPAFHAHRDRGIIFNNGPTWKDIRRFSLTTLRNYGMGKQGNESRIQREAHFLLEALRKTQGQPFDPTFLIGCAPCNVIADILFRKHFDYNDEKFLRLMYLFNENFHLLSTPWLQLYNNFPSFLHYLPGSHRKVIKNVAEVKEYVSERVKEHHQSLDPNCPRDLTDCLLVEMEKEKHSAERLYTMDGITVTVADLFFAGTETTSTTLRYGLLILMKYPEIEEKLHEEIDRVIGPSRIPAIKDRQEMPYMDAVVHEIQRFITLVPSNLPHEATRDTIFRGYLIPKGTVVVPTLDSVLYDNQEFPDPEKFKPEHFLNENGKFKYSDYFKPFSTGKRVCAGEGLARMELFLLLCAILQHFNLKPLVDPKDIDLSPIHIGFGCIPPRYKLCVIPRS

Mus musculus [1] = assay: Reno-protective activity against LPS-induced acute kidney injury C57BL/6J mouse model assessed as decrease in tubular injury by measuring epithelial flattening and tubular dilation at 5 to 20 mg/kg, ip administered twice at 30 mins prior to LPS challenge and 8 hrs post-LPS challenge and measured at 16 hrs post-LPS challenge by Hematoxylin-Eosin staining based analysis; assay type: functional, organism-based; conditions: dose 5-20 mg/kg, time 16.5 hrs
Mus musculus [2] = assay: (§1) Reno-protective activity against CLP-induced acute kidney injury C57BL/6J mouse model assessed as decrease in IL-18 mRNA expression in kidney at 20 mg/kg, ip administered twice at 30 mins prior to CLP operation and 8 hrs post-CLP operation and measured at 16 hrs post-CLP operation by RT-qPCR analysis; assay type: functional, organism-based; conditions: time 16.5 hrs
[3] = Toxicity in C57BL/6J mouse assessed as pathological changes in spleen at 20 mg/kg, ip administered twice at 0 hrs and 8 hrs and measured after 16 hrs by Hematoxylin-Eosin staining based analysis; assay type: organism-based; conditions: in vivo
[4] = Intrinsic clearance in mouse liver microsomes; assay type: ADME, Microsome; conditions: read-out: CLH
Mus musculus [5] = assay: (§2) Reno-protective activity against LPS-induced acute kidney injury C57BL/6J mouse model assessed as decrease in KIM1 mRNA expression in kidney at 5 to 20 mg/kg, ip administered twice at 30 mins prior to LPS challenge and 8 hrs post-LPS challenge and measured at 16 hrs post-LPS challenge by RT-qPCR analysis; assay type: functional, organism-based; conditions: dose 5-20 mg/kg, time 16.5 hrs
Mus musculus [6] = assay: Reno-protective activity against ip dosed LPS-induced acute kidney injury C57BL/6J mouse model assessed as decrease in serum […] level administered twice at 30 mins prior to LPS challenge and 8 hrs post-LPS challenge and measured at 16 hrs post-LPS challenge; assay type: functional; conditions: time 16.5 hrs, read-out: MED
[7] = Toxicity in C57BL/6J mouse assessed as pathological changes in testes at 20 mg/kg, ip administered twice at 0 hrs and 8 hrs and measured after 16 hrs by Hematoxylin-Eosin staining based analysis; assay type: organism-based; conditions: in vivo
Cytochrome P450 2C9 = Cytochrome P450 2C9 (Homo sapiens, UniProt P11712); assay: Inhibition of CYP2C9 in human liver microsomes using tolbutamide as substrate upto 100 uM incubated for 10 mins in presence of NADPH by LC-MS/MS analysis; assay type: ADME, Microsome
Chain of Cytochrome P450 2C9 (P11712 whole entry): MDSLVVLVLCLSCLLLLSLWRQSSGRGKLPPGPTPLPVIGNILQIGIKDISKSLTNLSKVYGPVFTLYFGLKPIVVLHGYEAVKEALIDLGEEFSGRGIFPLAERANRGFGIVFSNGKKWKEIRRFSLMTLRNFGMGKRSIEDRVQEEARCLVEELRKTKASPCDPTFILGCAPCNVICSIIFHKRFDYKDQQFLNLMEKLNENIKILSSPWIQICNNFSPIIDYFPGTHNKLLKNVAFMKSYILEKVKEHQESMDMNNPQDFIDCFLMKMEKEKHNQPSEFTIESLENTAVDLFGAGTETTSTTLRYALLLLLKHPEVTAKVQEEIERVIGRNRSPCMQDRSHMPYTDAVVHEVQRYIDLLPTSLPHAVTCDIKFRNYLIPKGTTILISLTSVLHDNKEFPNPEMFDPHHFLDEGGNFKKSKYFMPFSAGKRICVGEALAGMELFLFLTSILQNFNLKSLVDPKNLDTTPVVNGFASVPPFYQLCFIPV

[8] = Oral bioavailability in BALB/c mouse at 10 mg/kg measured for 24 hrs by LC-MS/MS analysis; assay type: ADME, organism-based; conditions: in vivo
[9] = target: T1, P2X purinoceptor 7 (Homo sapiens) (UniProt Q99572); assay: Antagonist activity at P2X7 receptor in human THP-1 cells assessed as inhibition of Bz-ATP-evoked channel current at 2 uM by whole-cell patch clamp analysis; assay type: cell-based; conditions: filed as antagonist
T1 sequence (whole entry): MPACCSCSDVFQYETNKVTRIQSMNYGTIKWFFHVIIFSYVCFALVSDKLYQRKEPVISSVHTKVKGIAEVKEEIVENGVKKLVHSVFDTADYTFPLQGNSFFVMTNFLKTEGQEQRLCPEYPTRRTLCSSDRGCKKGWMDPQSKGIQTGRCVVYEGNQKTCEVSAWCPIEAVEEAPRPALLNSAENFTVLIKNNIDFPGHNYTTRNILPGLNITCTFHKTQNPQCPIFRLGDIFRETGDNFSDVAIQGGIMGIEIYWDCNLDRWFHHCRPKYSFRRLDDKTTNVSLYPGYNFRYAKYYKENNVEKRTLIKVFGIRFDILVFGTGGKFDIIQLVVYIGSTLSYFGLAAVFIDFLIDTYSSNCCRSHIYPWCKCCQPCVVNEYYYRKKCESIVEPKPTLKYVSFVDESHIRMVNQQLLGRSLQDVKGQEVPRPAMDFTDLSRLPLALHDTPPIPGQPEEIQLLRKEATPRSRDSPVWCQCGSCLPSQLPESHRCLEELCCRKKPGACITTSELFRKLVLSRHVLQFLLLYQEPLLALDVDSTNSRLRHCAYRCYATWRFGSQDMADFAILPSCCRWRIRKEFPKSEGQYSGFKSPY

THP-1 [10] = assay: Cytotoxicity against human THP-1 cells assessed as effect on cell viability at 1 to 4 uM incubated for 2 hrs by CCK8 assay; assay type: toxicity, cell-based; conditions: thp-1, 2 h, dose 1-4 µM
Mus musculus [11] = assay: as §1, with “Nlrp3 gene” for “IL-18 mRNA”, “RNA sequencing” for “RT-qPCR”; assay type: functional, organism-based; conditions: time 16.5 hrs
[12] = Half life in mouse liver microsomes; assay type: ADME, Microsome
[13] = Toxicity in ip dosed C57BL/6J mouse assessed as maximum tolerated dose and measured for 14 days; assay type: organism-based; conditions: in vivo, time 14 day
[14] = Cmax in BALB/c mouse at 10 mg/kg, ip measured for 24 hrs by LC-MS/MS analysis; assay type: ADME, organism-based; set-up: dose 10 mg/kg, time 24 hrs, route ip; conditions: in vivo
[15] = Half life in BALB/c mouse at 10 mg/kg, iv measured for 24 hrs by LC-MS/MS analysis; assay type: ADME, organism-based; conditions: in vivo
[16] = Tmax in BALB/c mouse at 10 mg/kg, iv measured for 24 hrs by LC-MS/MS analysis; assay type: ADME, organism-based; conditions: in vivo
[17] = Toxicity in C57BL/6J mouse assessed as animal's survival rate at 400 mg/kg, ip measured for 14 days; assay type: organism-based; conditions: in vivo, time 14 day
[18] = AUC(0 to t) in BALB/c mouse at 10 mg/kg, iv measured for 24 hrs by LC-MS/MS analysis; assay type: ADME, organism-based; set-up: time 24 hrs, dose 10 mg/kg, route iv; conditions: in vivo
[19] = Clearance in BALB/c mouse at 10 mg/kg, iv measured for 24 hrs by LC-MS/MS analysis; assay type: ADME, organism-based; conditions: in vivo
[20] = Cmax in BALB/c mouse at 10 mg/kg, po measured for 24 hrs by LC-MS/MS analysis; assay type: ADME, organism-based; set-up: time 24 hrs, dose 10 mg/kg, route po; conditions: in vivo
THP-1 [21] = assay: Effect on P2X7 receptor expression in human THP-1 cells at 0.1 to […] pretreated with LPS for 3 hrs followed by incubation with compound for 40 mins followed by treatment with ATP for 1 hr by western blot analysis; assay type: functional, cell-based; conditions: dose 0.1-2.5 µM, time 100.0 min
Mus musculus [22] = assay: as §1, with “tubular injury” for “IL-18 mRNA expression in kidney”, “Hematoxylin-Eosin staining based” for “RT-qPCR”; assay type: functional, organism-based; conditions: time 16.5 hrs
[23] = Clearance in BALB/c mouse at 10 mg/kg, po measured for 24 hrs by LC-MS/MS analysis; assay type: ADME, organism-based; conditions: in vivo
Mus musculus [24] = assay: Reno-protective activity against LPS-induced acute kidney injury C57BL/6J mouse model assessed as decrease in BUN level at 5 to 20 mg/kg, ip administered twice at 30 mins prior to LPS challenge and 8 hrs post-LPS challenge and measured at 16 hrs post-LPS challenge; assay type: functional, organism-based; conditions: dose 5-20 mg/kg, time 16.5 hrs
Mus musculus [25] = assay: Reno-protective activity against CLP-induced acute kidney injury C57BL/6J mouse model assessed as decrease in NGAL mRNA expression in kidney at 20 mg/kg, ip administered twice at 30 mins prior to CLP operation and 8 hrs post-CLP operation and measured at 16 hrs post-CLP operation by RT-qPCR analysis; assay type: functional, organism-based; conditions: time 16.5 hrs
Mus musculus [26] = assay: as §1, with “Tnfa-gene” for “IL-18 mRNA”, “RNA sequencing” for “RT-qPCR”; assay type: functional, organism-based; conditions: time 16.5 hrs
Mus musculus [27] = assay: as §2, with “NGAL” for “KIM1”; assay type: functional, organism-based; conditions: dose 5-20 mg/kg, time 16.5 hrs

Compound: CS(=O)(=O)c1ccc(-c2nc(C(=O)NCc3cn(-c4cc(Br)ccn4)nn3)cs2)cc1
- inhibition (INH) (Cytochrome P450 2E1): Not Active
- Activity (Mus musculus [1]): Dose-Dependent Effect
- Activity (Mus musculus [2]): Active
- Activity [3]: Non-Toxic
- CLint scaled [4]: < 0.72 L/h/kg
- Activity (Mus musculus [5]): Dose-Dependent Effect
- minimal effective dose (Mus musculus [6]): 5 mg/kg
- Activity [7]: Non-Toxic
- inhibition (INH) (Cytochrome P450 2C9): Not Active
- bioavailability [8]: 39.2%
- inhibition [9]: 56.1%
- Activity (THP-1 [10]): Non-Toxic
- Activity (Mus musculus [11]): Active
- half-life [12]: > 2 h
- MTD at 336 h [13]: 400 mg/kg
- Cmax [14]: 1.07 µg/mL
- half-life [15]: 5.31 h
- Tmax [16]: 0.19 h
- survival at 336 h [17]: 100%
- AUC(0-t) at 24 h [18]: 16.6 µg·h/mL
- clearance [19]: 0.59 L/h/kg
- Cmax [20]: 1.3 µg/mL
- Activity (THP-1 [21]): inactive
- Activity (Mus musculus [22]): Active
- CL/F [23]: 1.55 L/h/kg
- Activity (Mus musculus [24]): Dose-Dependent Effect
- Activity (Mus musculus [25]): Active
- Activity (Mus musculus [26]): Active
- Activity (Mus musculus [27]): Dose-Dependent Effect
